Each block holds one molecule with its values, some of them ahead of it. Primed or numbered codes have the meaning given here. DTPA′ = diethylenetriaminepentaacetic acid
Key:
[1] = not told; cited from earlier work
[2] = cited from earlier work
[3] = test system: hMN-14IgG^(I253A)-(734scFv)2; experiment: Affinity blocking studies on IMP 240-coated BIAcore chip (surface plasmon resonance); type: binding
Method: (§1) The binding of In-DTPA peptides to the anti-In-DTPA antibody hMN-14IgG^(I253A)-(734scFv)2 was examined by affinity blocking studies using the IMP 240 peptide, Ac-Lys(DPTA)-Cys-NH2, which comprises a single DPTA group and a single Cys residue that can be used to form disulfide bridges with a second molecule having a free sulfhydryl group.
(§2) The binding studies were performed on a chip coated with IMP 240 using the disulfide connection as recommended by BIAcore. The chip surface was regenerated after each assay with 100 μL 0.025 M In-DTPA in HBS-In-citrate buffer as described. The binding studies were done with picomoles of antibody therefore binding was very sensitive to the slightest trace of In-DTPA left after the displacement wash.

[4] = test system: c734 IgG; experiment: as above; type: binding
Method: as §1, §2
Studies were performed with c734-IgG to compare the In-DTPA peptide binding behavior of this IgG to the hMN-14IgG^(I253A)-(734scFv)2.

[5] = test system: hMN-14IgG^(I253A)-(734scFv)2; experiment: Complex formation of radiolabeled DTPA peptides with bsMAb, size exclusion HPLC; type: binding; conditions: for complexing of bsMAb with radiolabeled indium-DTPA chelates: radioiodinated bsMAb, size exclusion HPLC
Description: The binding of In-DTPA peptides to the anti-In-DTPA antibody hMN-14IgG^(I253A)-(734scFv)2 was examined by size exclusion HPLC. The bsMAb was radioiodinated using chloramines-T (Greenwood and Hunter). Binding of the radioiodinated bsMAbs to CEA, WI2 (rat anti-MN-14 idiotypic antibody) and radiolabeled peptidyl DTPA chelate was examined on analytical size exclusion HPLC. Approximately 90% of the radioiodinated bsMAb bound to CEA upon treatment with 10-20× molar excess of CEA. The bsMAb complexed with radiolabeled indium-DTPA chelates (IMP-156 or IMP-192).
An IMP 192 kit was labeled with Tc-99m 20.9 mCi. Aliquots from the kit were diluted and mixed with hMN-14IgG^(I253A)-(734scFv)2 in the following molar ratios (peptide/Ab) 1:5, 1:1, and 20:1. The peptide/antibody mixtures, the peptide alone and the antibody alone were examined on a Bio-Sil SEC 250 300 mm×7.8 mm HPC column eluted at 1 mL/min with 0.2 M phosphate buffer pH 6.8.
A known standard of hMN-14IgG^(I253A)-(734scFv)2 eluted from the column at about 9.41 minutes (FIG. 3). A known standard of Tc-99m IMP 192 eluted from the column at about 14.85 minutes (FIG. 4).

[6] = biological target: IMP 246 [Ac-Cys-Lys(DTPA)-Tyr-Lys(DTPA)-NH2]2; experiment: size exclusion HPLC; In-111 IMP 246 mixed with bsAb at 1:10 (IMP 246:bsAb) mole ratio
[7] = biological target: CEA (carcinoembryonic antigen) (UniProt P06731); experiment: analytical size exclusion HPLC of radioiodinated bsMAb mixed with 10-20x molar excess of CEA
UniProt P06731, sequence (P06731 35-685 limits assumed): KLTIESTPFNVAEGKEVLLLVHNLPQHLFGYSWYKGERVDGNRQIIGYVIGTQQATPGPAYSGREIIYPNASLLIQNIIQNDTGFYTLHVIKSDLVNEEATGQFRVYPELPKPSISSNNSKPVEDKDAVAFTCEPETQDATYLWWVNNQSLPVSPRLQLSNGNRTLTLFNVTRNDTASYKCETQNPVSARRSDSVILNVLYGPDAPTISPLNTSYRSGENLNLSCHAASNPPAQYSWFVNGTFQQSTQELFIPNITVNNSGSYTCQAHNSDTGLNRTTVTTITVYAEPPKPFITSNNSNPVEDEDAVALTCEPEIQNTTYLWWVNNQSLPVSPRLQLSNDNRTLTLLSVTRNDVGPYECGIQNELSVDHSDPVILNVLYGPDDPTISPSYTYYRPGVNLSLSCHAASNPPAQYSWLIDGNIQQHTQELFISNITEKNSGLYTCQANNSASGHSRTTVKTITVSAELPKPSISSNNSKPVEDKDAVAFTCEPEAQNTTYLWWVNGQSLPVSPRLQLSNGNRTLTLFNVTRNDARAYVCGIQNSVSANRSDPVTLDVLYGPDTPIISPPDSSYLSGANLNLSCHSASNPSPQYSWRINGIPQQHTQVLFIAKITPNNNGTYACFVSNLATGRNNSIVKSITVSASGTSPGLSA

[8] = biological target: IMP 246 [Ac-Cys-Lys(DTPA)-Tyr-Lys(DTPA)-NH2]2; experiment: size exclusion HPLC; labeled IMP 246 mixed with hMN-14 IgG^(I253A)-(734scFv)2, 16 hr at 37° C. in mouse serum
[9] = biological target: c734 IgG; experiment: SPR blocking assay; peptide premixed with antibody, IMP 240 chip
[10] = biological target: hMN-14IgG^(I253A)-(734scFv)2; experiment: as above

Molecule: C=CS(=O)(=O)c1ccc(C(=O)ON2C(=O)CCC2=O)cc1 [SVSB]
Membrane Permeable [1]: Yes

Molecule: CCN=C=NCCCN(C)C [EDC, 1-ethyl-3-(3-dimethylaminopropyl)-carbodiimide]
Water Soluble [2]: Yes

Molecule: O=C(CCSSc1ccccn1)ON1C(=O)CCC1=O [SPDP, N-succinimidyl 3-(2-pyridyldithio)propionate]
Membrane Permeable [1]: Yes

Molecule: O=C(CI)Nc1ccc(C(=O)ON2C(=O)CC(S(=O)(=O)O)C2=O)cc1 (centres unmarked) [Sulfo-SIAB, sulfosuccinimidyl(4-iodoacetyl)aminobenzoate]
Membrane Permeable [1]: No

Molecule: O=C(O)CCN1C(=O)C=CC1=O [BMPA]
Membrane Permeable [1]: No

Molecule: O=C(CCCN1C(=O)C=CC1=O)ON1C(=O)CCC1=O [GMBS, N-[γ-Maleimidobutyryloxy] succinimide ester]
Membrane Permeable [1]: Yes

Molecule: CC(SSc1ccccn1)c1ccc(C(=O)NCCCCCC(=O)ON2C(=O)CC(S(=O)(=O)O)C2=O)cc1 (centres unmarked) [Sulfo-LC-SMPT, sulfosuccinimidyl 6-[a-methyl-a-(2-pyridyl-dithio)toluamido]hexanoate]
Water Soluble [2]: Yes

Molecule: Ac-Phe-Gln-Tyr-Lys(DTPA)-NH2 (Ac-FQYK(DTPA′)-NH2) [IMP 233]
blocking of antibody binding to the IMP 240 chip ([3]; four equivalents of peptide premixed with the antibody): not completely blocked
blocking of antibody binding to the IMP 240 chip ([4]; 4:1 peptide/c734 IgG): did not completely block

Molecule: O=C(CCCN1C(=O)C=CC1=O)ON1C(=O)CC(S(=O)(=O)O)C1=O (centres unmarked) [Sulfo-GMBS, N-[γ-Maleimidobutyryloxy] sulfosuccinimide ester]
Membrane Permeable [1]: No

Molecule: Ac-Lys(DTPA)-Tyr-Lys(DTPA)-Lys(TSCG-Cys)-NH2 [IMP 192]
peptide/antibody complexes formed (HPLC traces) ([5]; Tc-99m IMP 192 mixed with antibody, molar ratios 1:5, 1:1, 20:1): essentially only one peptide/antibody complex is formed
complexing of bsMAb with radiolabeled indium-DTPA chelates [5]: complexed

percent of In-111 label in the complex peak [6]: 90%
percent of bsMAb bound [7]: 90%
percent of HPLC area in the complex peak after 16 hr in mouse serum [8]: > 90%
Molecule: hMN-14IgG^(I253A)-(734scFv)2 (bispecific antibody)

Molecule: O=C(CCSSc1ccccn1)NCCCCCC(=O)ON1C(=O)CC(S(=O)(=O)O)C1=O (centres unmarked) [Sulfo-LC-SPDP, sulfosuccinimidyl 6-[3′-(2-pyridyldithio)-propionamido] hexanoate]
Water Soluble [2]: Yes

Molecule: O=C(CCCCCNC(=O)C1CCC(CN2C(=O)C=CC2=O)CC1)ON1C(=O)CCC1=O (centres unmarked) [LC-SMCC, succiminidyl-4-(N-maleimidomethyl)cyclohexane-1-carboxy-(6-amido-caproate)]
Membrane Permeable [1]: No

Molecule: O=C(CI)Nc1ccc(C(=O)ON2C(=O)CCC2=O)cc1 [SIAB, N-succinimidyl(4-iodoacetyl)aminobenzoate]
Membrane Permeable [1]: Yes

Molecule: O=C(ON1C(=O)CCC1=O)c1cccc(N2C(=O)C=CC2=O)c1 [MBS, m-maleimidobenzoyl-N-hydoxysuccinimide ester]
Membrane Permeable [1]: Yes

Molecule: O=C(CCCCCN1C(=O)C=CC1=O)ON1C(=O)CCC1=O [EMCS, N-[ε-maleimidocaproyloxy]succinimide ester]
Membrane Permeable [1]: Yes

Molecule: O=C(ON1C(=O)CC(S(=O)(=O)O)C1=O)c1cccc(N2C(=O)C=CC2=O)c1 (centres unmarked) [Sulfo-MBS, m-maleimidobenzoyl-N-hydoxysulfosuccinimide ester]
Membrane Permeable [1]: No

Molecule: O=C(ON1C(=O)CC(S(=O)(=O)O)C1=O)C1CCC(CN2C(=O)C=CC2=O)CC1 (centres unmarked) [Sulfo-SMCC, sulfosuccinimidyl 4-(N-maleimidomethyl)cyclohexane-1-carboxylate]
Membrane Permeable [1]: No

Molecule: CC(SSc1ccccn1)c1ccc(C(=O)ON2C(=O)CCC2=O)cc1 (centres unmarked) [SMPT, 4-succinimidyloxycarbonyl-methyl-(2-pyridyldithio)-toluene]
Water Soluble [2]: No

percent of In-111 label in the complex peak [6]: 83%
Molecule: hMN-14IgG-(734scFv)2 (bispecific antibody)

Molecule: CC(=O)SCCC(=O)ON1C(=O)CCC1=O [SATP]
Membrane Permeable [1]: Yes

Molecule: O=C(CCCCCN1C(=O)C=CC1=O)ON1C(=O)CC(S(=O)(=O)O)C1=O (centres unmarked) [Sulfo-EMCS, N-[ε-maleimidocaproyloxy]sulfosuccinimide ester]
Membrane Permeable [1]: No

Molecule: O=C(CCCc1ccc(N2C(=O)C=CC2=O)cc1)ON1C(=O)CC(S(=O)(=O)O)C1=O (centres unmarked) [Sulfo-SMPB, sulfosuccinimidyl 4-[p-maleimidophenyl]butyrate]
Water Soluble [2]: Yes

Molecule: O=C(O)CCCCCCCCCCN1C(=O)C=CC1=O [KMUA]
Membrane Permeable [1]: No

Molecule: Cl.NCCSSCCC(=O)O [AEDP]
Membrane Permeable [1]: No

Molecule: O=C(O)CCCCCN1C(=O)C=CC1=O [EMCA]
Membrane Permeable [1]: No

Molecule: O=C(CCSSc1ccccn1)NCCCCCC(=O)ON1C(=O)CCC1=O [LC-SPDP, N-succinimidyl 6-[3′-(2-pyridyldithio)propionamido]hexanoate]
Water Soluble [2]: No

Molecule: O=C(CCCCCCCCCCN1C(=O)C=CC1=O)ON1C(=O)CC(S(=O)(=O)O)C1=O.[Na] (centres unmarked) [Sulfo-KMUS]
Membrane Permeable [1]: No

Molecule: Ac-Phe-Lys(DTPA)-Tyr-Lys(DTPA)-NH2 (Ac-FK(DTPA′)YK(DTPA′)-NH2) [IMP 156]
complexing of bsMAb with radiolabeled indium-DTPA chelates [5]: complexed
affinity of antibody for In-IMP 156 relative to a single In-DTPA for a c734 IgG binding arm [3]: far higher
equivalents of peptide that block binding to the chip [3]: one equivalent
blocking of antibody binding to the IMP 240 chip ([3]; peptide mixed with antibody in a 1:1 ratio): completely blocked
equivalents of peptide needed to block binding to the chip [4]: two or more equivalents

Molecule: O=C(ON1C(=O)CCC1=O)C1CCC(CN2C(=O)C=CC2=O)CC1 (centres unmarked) [SMCC, succinimidyl 4-(N-maleimidomethyl)cyclohexane-1-carboxylate]
Membrane Permeable [1]: Yes

Molecule: O=C(CBr)NCCC(=O)ON1C(=O)CCC1=O [SBAP]
Membrane Permeable [1]: Yes

equivalents of peptide needed to block binding to the IMP 240 chip [9]: 2 equivalents
equivalents of peptide needed to block binding to the IMP 240 chip [10]: 1 equivalents
Molecule: Ac-FK(DTPA′)YK(DTPA′)-NH2 (also: DTPA loaded with indium) [IMP 156 Ac-Phe-Lys(DTPA)-Tyr-Lys(DTPA)-NH2]

From patent US7951921B2, “Multivalent carriers of bi-specific antibodies” (Immunomedics, Inc., priority 2003, dated 2011)
